Measured values reported in paper PMC11148078, “Potent activity of polymyxin B is associated with long-lived super-stoichiometric accumulation mediated by weak-affinity binding to lipid A” (Nature Communications, 2024).
Bridge positions count the residues as written; N and C are the ends. Square brackets hold non-standard residues; d marks the D form. Peptide text beside a SMILES is read from it. * marks the point of attachment. X1 = CC[C@H](C)CCCCC(=O)*; Dab = NCC[C@H](N)C(=O)O

Columns and labels:
lipid A / outer membrane = system: lipid A / outer membrane; parameters: method as in PMID 6414364, PMID 10956216; conditions: ref [20],[21]; cited from earlier work
[1] = system: polymyxin B-resistant E. coli cells expressing mcr-1; experiment: Whole cell SPR, E. coli expressing mcr-1; format: binding
Procedure: Bacterial strains were grown in LB or LB with 0.2% arabinose and carbenicillin (50 μg/mL) to log phase (OD600 approximately 0.4–0.6), centrifuged for 10 min at 2500 × g (3500 rpm using a tabletop centrifuge), and re-suspended in PBS to a final OD600 of approximately 5. SPR on whole bacterial cells was performed and analyzed as described for OMVs on C1 chip, but with an additional carry-over wash prior to the capture. Regeneration of the chip after whole cell binding also required additional steps ([…] flow rate): (1) PBS supplemented with 32 mM MgCl2 for 120 s, (2) 2.5 M NaCl for 30 s, (3) 0.5% SDS (Desorb 1, Cytiva) for 60 s with carry over controls between.

wt-OMVs = experiment: SPR chaser analysis (residence time), wt-OMVs; format: binding, E. coli; conditions: for t1/2: n≥3, (SD)
Procedure: The off-rate of the tightly bound fraction was estimated using a chaser analysis, where OMVs were pre-saturated with polymyxin B and then re-saturated after an extended time interval (Supplementary Information Fig. S11A). […] A t1/2 of >6 h was determined for polymyxin B binding to OMVs at both 25 and 37 °C (SI Table S3). The t1/2 of brevicidine, also measured by chaser analysis, was approximately 1 h on both wt-OMVs and polymyxin-resistant-OMVs (SI Table S3).
Binding and kinetic analysis of SPR-OMV assays […]
To determine the residence time of the test compound with OMVs, the ‘chaser method’ was used because it accounts for drift that can occur in the system over long incubation times 13. OMVs were loaded onto the chip as described above then 5 µM polymyxin B was injected using the ‘low-sample consumption’ setting for 300 sec ([…] flow rate), followed by a 240 sec dissociation time. A second dose of 5 µM polymyxin B was then injected for 60 sec ([…]) to assure saturation followed by a 2 h dissociation time prior to the ‘chaser’, a 60 sec pulse of 5 µM polymyxin B. The RUs of associated polymyxin B were determined 120 sec after the start of the dissociation. The change in RUs from before dosing to after the second dose, and the change in RUs from prior to the ‘chaser’ dose and 120 sec after the start of its dissociation were used to calculate the fraction occupancy of the material and the residence time/half-life as described 13. […]
PMBN) to LPS for 20 min. […]
20 sec with a Solarus plasma cleaner (Gatan). Grids were blotted and plunge-frozen by Vitrobot (ThermoFisher Scientific, Waltham, MA) at 4°C, 100% relative humidity, blot force 7, and a 3 sec […]
TEM data collection was performed using a Titan Krios G3i (ThermoFisher Scientific, Waltham, MA) operating at 300 kV equipped with a BioQuantum energy filter and a K3 Summit direct electron detector operating at a nominal magnification of 105,000x (0.838 Å/pixel), an energy slit width of 20 eV, defocus range -1 to -3 μm, 3-sec exposure time, 60 frames per movie, a total electron fluence of ~64 e/Å2. Microscope and camera automation was accomplished by SerialEM14, and image processing (motion correction & CTF estimation) was performed using […]
Standard cryo-EM image processing software and methods were incompatible with the vesicle images, so a blinded visual scoring method for image analysis was used. Approximately 50 images from each sample and treatment condition that each contained at least one OMV (pooled in a single folder and blinded) were scored for number of vesicles touching (0-10+), and if the vesicle membranes appeared disrupted or abnormal. Sampling was not completely random as images of vesicles could not be obtained from areas with significant clumping. Images shown in […]

[2] = system: E. coli cells, OMVs, and LPS; experiment: SPR apparent association rate averaged over cells, OMVs and LPS; format: binding; conditions: averaged for cells
Procedure: OMV-coated and whole cell-coated C1 chips were prepared as already described with the following changes and LPS-coated surfaces were prepared identically but with rough-LPS extracted from E. coli F583 (Rd mutant, Sigma #L6893). For LPS, cloudy colloid suspension (above its CMC, ~1 mg/ml) contains LPS micelles that were injected and captured. For all formats, sample buffer and running buffer were composed of Dulbecco’s phosphate-buffered salt solution containing 0.0005% tween-80 (Sigma), 1 mM calcium and 0.5 mM magnesium (Fisher Scientific), pH 7.4. Analysis and compartment temperatures were both set to 37 °C. Freshly prepared OMV-coated or whole cell-coated sensing surfaces were employed for each injection of polymyxin B while LPS-coated sensing surfaces could be fully regenerated by injecting 50 mM CHAPS. Reversibly bound PMBN could be reinjected over all surfaces without requiring regeneration as it fully dissociated within a few minutes.
Fresh sensing surfaces coated with whole cells and OMVs were prepared and 325 nM polymyxin B was injected at […] for 120 s over both. This injection was repeated after a long delay, and without regeneration, in order to allow free sites to become available thereby resulting in two polymyxin B binding curves for each sensing surface (Fig. 3E, F). […]

SMILES | antibacterial activity and lipid A binding (lipid A / outer membrane) | SPR binding profile [1] | t1/2 of tightly bound state (wt-OMVs; 25 and 37 °C) [h] | t1/2 (wt-OMVs; 25 °C) | t1/2 (wt-OMVs; 37 °C) | ka, apparent association rate constant [2]
CC(C)C[C@@H]1NC(=O)[C@@H](Cc2ccccc2)NC(=O)[C@H](CCN)NC(=O)[C@@H](NC(=O)[C@H](CCN)NC(=O)[C@@H](N)[C@@H](C)O)CCNC(=O)[C@H]([C@@H](C)O)NC(=O)[C@H](CCN)NC(=O)[C@H](CCN)NC1=O [PMBN] (H-T[Dab][Dab][Dab][dF]L[Dab][Dab]T; lactam 3-C) | do not possess antibacterial activity, nonetheless bind to lipid A and permeabilize the outer membrane | – | – | – | – | –
CC[C@H](C)CCCCC(=O)N[C@@H](CCN)C(=O)N[C@H](C(=O)N[C@@H](CCN)C(=O)N[C@H]1CCNC(=O)[C@H]([C@@H](C)O)NC(=O)[C@H](CCN)NC(=O)[C@H](CCN)NC(=O)[C@H](CC(C)C)NC(=O)[C@@H](Cc2ccccc2)NC(=O)[C@H](CCN)NC1=O)[C@@H](C)O [Polymyxin B] (X1-[Dab]T[Dab][Dab][Dab][dF]L[Dab][Dab]T; lactam 4-C (inferred); N-terminus assumed) | – | same polymyxin B binding profiles were observed | > 6 | 6.86 (2.11) h | 7.27 (2.15) h | 2.1 (±0.78) × 10^5 M^−1 s^−1
